Consider 1 molecule from US20240174744A1, “METHODS OF TREATMENT USING PROTEIN BINDERS TO IRHOM2 EPITOPES” (SCIRHOM GMBH, priority 2021, published 2024).

Assay [1] relates to PMA-induced release of IL-6R from THP-1 cells. As to the kind of experiment: ELISA-based IL-6R release assay, PMA-stimulated THP-1 cells. In kind it is cell-based. Conditions: Homo sapiens, recombinant murine antibodies 1 μg/ml, Batimastat 10 μM, PMA 25 ng/ml, 1 hour. The protocol: In the following study, ELISA-based IL-6R release assays were performed to analyze the inhibitory effects of the antibodies of the present disclosure on PMA-induced release of endogenous IL-6R from human THP-1 monocytic cells.
In brief, on day 1, Nunc black MaxiSorp® 96-well plates (Thermo Fisher Scientific, USA) were coated for 7 hours with 100 μl per well of mouse anti-human IL-6R capture antibody (provided as part of the DuoSet ELISA kit) at 2 μg/ml TBS at room temperature. Capture antibody solution was removed and MaxiSorp® plates were blocked with 300 μl per well of TBS, 1% BSA at room temperature for 1.5 hours. […] Using an infinite M1000 (Tecan Group, Switzerland) microplate reader, the fluorescence of each well was collected at an excitation wavelength of 435 nm and an emission wavelength of 555 nm.
A general note: In an ELISA, binding on a coated surface is turned into a signal by an enzyme label.

In assay [2] the test system is PMA-induced release of TGFα from PC3 cells. The assay is described as follows: ELISA-based TGFα release assay, PMA-stimulated PC3 cells. The format is cell-based. The settings on record: Homo sapiens, PC-3; recombinant murine antibodies 1 μg/ml; Batimastat 10 μM; PMA 25 ng/ml, 2 hours. The procedure:
In the following study, ELISA-based TGFα release assays were performed to analyze the inhibitory effects of the antibodies of the present disclosure on PMA-induced release of endogenous TGFα from human PC3 prostate cancer cells.
In brief, on day 1, Nunc black MaxiSorp® 96-well plates (Thermo Fisher Scientific, USA) were coated overnight with 100 μl per well of goat anti-human TGFα capture antibody (provided as part of the DuoSet ELISA kit) at 0.4 μg/ml TBS at 4° C. On day 2, the capture antibody solution was removed and MaxiSorp® plates were blocked with 300 μl per well of TBS, 1% BSA at room temperature for 3 hours. […] Using an infinite M1000 (Tecan Group, Switzerland) microplate reader, the fluorescence of each well was collected at an excitation wavelength of 435 nm and an emission wavelength of 555 nm.

`CNC(=O)[C@H](Cc1ccccc1)NC(=O)[C@H](CC(C)C)[C@H](CSc1cccs1)C(=O)NO` [Batimastat]: the inhibition at 10 µM in assay [1] amounted to 88.6%; in assay [2], 99.1%.

One may read the inhibition as how much of the control response was suppressed.
